Measurements as given in ChEMBL document CHEMBL1909046, “DrugMatrix in vitro pharmacology data”.

What was measured:
[1] = biological target: T1, Alpha-1B adrenergic receptor (Rattus norvegicus, UniProt P15823); test: DRUGMATRIX: Alpha-1B adrenergic receptor radioligand binding (ligand: prazosin); assay type: cell membranes, Wistar, Liver, Membrane; conditions: Not Active = under 50% inhibition at 10 µM
T1 sequence (P15823 whole entry): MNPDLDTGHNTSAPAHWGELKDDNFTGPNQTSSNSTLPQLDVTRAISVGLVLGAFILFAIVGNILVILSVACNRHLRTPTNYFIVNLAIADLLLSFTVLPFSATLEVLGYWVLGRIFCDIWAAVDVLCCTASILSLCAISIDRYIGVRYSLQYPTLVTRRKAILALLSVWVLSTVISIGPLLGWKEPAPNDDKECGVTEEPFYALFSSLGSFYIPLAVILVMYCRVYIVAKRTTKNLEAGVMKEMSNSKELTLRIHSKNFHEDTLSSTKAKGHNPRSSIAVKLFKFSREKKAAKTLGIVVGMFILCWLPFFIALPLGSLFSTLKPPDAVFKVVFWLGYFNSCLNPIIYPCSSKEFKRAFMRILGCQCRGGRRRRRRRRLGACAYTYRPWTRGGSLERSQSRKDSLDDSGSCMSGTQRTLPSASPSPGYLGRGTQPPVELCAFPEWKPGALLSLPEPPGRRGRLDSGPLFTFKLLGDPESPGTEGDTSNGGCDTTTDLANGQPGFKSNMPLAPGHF

[2] = biological target: Beta-1 adrenergic receptor (Homo sapiens, UniProt P08588); test: DRUGMATRIX: Adrenergic beta1 radioligand binding (ligand: [125I] Cyanopindolol); assay type: cell membranes, CHO-K1, Membrane; conditions: cho-k1; Not Active = under 50% inhibition at 10 µM
Beta-1 adrenergic receptor, sequence (P08588 whole entry): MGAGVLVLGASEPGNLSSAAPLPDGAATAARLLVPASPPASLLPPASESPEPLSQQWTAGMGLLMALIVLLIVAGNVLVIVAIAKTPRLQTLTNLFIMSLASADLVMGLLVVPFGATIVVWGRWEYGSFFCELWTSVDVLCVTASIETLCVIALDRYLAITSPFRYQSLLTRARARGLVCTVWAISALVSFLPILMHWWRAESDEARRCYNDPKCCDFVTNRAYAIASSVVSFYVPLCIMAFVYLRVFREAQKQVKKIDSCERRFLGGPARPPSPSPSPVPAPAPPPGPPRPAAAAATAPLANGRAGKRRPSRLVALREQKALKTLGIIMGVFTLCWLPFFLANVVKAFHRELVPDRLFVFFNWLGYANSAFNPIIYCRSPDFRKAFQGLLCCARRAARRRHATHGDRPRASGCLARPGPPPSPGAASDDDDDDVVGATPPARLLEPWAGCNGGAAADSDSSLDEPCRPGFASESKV

[3] = DRUGMATRIX: Atrial Natriuretic Factor (ANF) radioligand binding (ligand: [125I] ANF (rat)); assay type: cell membranes, Cavia porcellus, Dunkin-Hartley, Adrenal gland, Membrane; conditions: Not Active = under 50% inhibition at 10 µM
[4] = DRUGMATRIX: Glutamate, AMPA radioligand binding (ligand: [3H] AMPA); assay type: cell membranes, Rattus norvegicus, Wistar, Cerebral cortex, Membrane; conditions: Not Active = under 50% inhibition at 10 µM
[5] = DRUGMATRIX: Interleukin IL-1 radioligand binding (ligand: [125I] interleukin 1beta); assay type: cell membranes, Membrane; conditions: nih3t3; Not Active = under 50% inhibition at 10 µM
[6] = DRUGMATRIX: Leukotriene, BLT (LTB4) radioligand binding (ligand: [3H]LTB4); assay type: cell membranes, Membrane; conditions: u-937; Not Active = under 50% inhibition at 10 µM
[7] = DRUGMATRIX: Nicotinic Acetylcholine radioligand binding (ligand: [125I] Epibatidine); assay type: cell membranes, Membrane; conditions: imr-32; Not Active = under 50% inhibition at 10 µM
Cytochrome P450 2C19 = Cytochrome P450 2C19 (Homo sapiens, UniProt P33261); conditions: bti-tn-5b1-4; also: in other assays of this panel Not Active means under 50% inhibition at 10 µM
Cytochrome P450 2C19, sequence (P33261 whole entry): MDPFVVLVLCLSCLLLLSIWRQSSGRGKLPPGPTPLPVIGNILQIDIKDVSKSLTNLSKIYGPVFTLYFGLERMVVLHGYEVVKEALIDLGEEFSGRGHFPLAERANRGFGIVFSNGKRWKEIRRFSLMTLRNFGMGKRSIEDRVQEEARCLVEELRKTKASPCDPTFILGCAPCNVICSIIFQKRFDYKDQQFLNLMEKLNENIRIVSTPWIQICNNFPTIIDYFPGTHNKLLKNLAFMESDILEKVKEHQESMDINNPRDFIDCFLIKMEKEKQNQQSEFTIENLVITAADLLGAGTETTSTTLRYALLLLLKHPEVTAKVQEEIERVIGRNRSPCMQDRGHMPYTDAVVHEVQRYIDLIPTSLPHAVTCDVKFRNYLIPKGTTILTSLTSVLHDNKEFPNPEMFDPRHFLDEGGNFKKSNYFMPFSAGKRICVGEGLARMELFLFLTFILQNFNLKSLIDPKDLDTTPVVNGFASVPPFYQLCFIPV

Glucocorticoid receptor = biological target: T2, Glucocorticoid receptor (Homo sapiens, UniProt P04150); conditions: hela s3; also: in other assays of this panel Not Active means under 50% inhibition at 10 µM
T2 sequence (P04150 whole entry): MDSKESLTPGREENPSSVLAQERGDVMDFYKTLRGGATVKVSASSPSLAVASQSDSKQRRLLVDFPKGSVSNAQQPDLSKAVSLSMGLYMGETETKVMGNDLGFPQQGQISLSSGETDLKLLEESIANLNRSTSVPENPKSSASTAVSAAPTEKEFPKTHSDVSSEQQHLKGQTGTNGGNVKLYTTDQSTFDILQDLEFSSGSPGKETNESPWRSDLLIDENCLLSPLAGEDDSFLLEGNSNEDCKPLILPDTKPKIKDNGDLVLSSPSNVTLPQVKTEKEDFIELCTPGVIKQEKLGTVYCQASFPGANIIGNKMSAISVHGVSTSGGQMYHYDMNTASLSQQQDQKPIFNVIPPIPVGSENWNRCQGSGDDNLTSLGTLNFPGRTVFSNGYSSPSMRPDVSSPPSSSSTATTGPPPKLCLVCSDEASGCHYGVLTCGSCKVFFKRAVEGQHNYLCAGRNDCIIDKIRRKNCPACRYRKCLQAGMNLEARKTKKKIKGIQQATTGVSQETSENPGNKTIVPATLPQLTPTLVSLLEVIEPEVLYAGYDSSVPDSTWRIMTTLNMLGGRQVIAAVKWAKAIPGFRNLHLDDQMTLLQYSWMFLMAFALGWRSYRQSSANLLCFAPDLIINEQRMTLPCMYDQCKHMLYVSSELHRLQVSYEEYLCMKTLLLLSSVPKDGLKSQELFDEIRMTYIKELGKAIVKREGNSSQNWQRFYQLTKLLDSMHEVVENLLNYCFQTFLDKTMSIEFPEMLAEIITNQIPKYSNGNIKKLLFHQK

O=C(O)CCCCC1CCSS1 (stereo not drawn) [LIPOIC ACID, ALPHA]
Not Active: IC50 [1] | IC50 [2] | IC50 [3] | Ki [3] | IC50 [4] | Ki [4] | IC50 [5] | Ki [5] | IC50 [6] | Ki [6] | IC50 [7] | Ki [7] | IC50 (Cytochrome P450 2C19) | Ki (Cytochrome P450 2C19) | IC50 (Glucocorticoid receptor)

CC(=O)OCC(COC(C)=O)OC(C)=O [TRIACETIN]
Not Active: IC50 [1] | IC50 [2] | IC50 [3] | Ki [3] | IC50 [4] | Ki [4] | IC50 [5] | Ki [5] | IC50 [6] | Ki [6] | IC50 [7] | Ki [7] | IC50 (Cytochrome P450 2C19) | Ki (Cytochrome P450 2C19) | IC50 (Glucocorticoid receptor)

TRANSPLATIN
Not Active: IC50 [1] | Ki [1] | IC50 [2] | Ki [2] | IC50 [3] | Ki [3] | IC50 [4] | Ki [4] | IC50 [5] | Ki [5] | IC50 [6] | Ki [6] | IC50 [7] | Ki [7] | IC50 (Cytochrome P450 2C19) | Ki (Cytochrome P450 2C19) | IC50 (Glucocorticoid receptor) | Ki (Glucocorticoid receptor)

O=C(O)COc1ccc(C(=O)c2cccs2)c(Cl)c1Cl
Not Active: IC50 [1] | IC50 [2] | IC50 [3] | Ki [3] | IC50 [4] | Ki [4] | IC50 [5] | Ki [5] | IC50 [6] | Ki [6] | IC50 [7] | Ki [7] | IC50 (Cytochrome P450 2C19) | Ki (Cytochrome P450 2C19) | IC50 (Glucocorticoid receptor)

ZIRCONIUM(IV) CHLORIDE
Not Active: IC50 [1] | Ki [1] | IC50 [2] | Ki [2] | IC50 [3] | Ki [3] | IC50 [4] | Ki [4] | IC50 [5] | Ki [5] | IC50 [6] | Ki [6] | IC50 [7] | Ki [7] | IC50 (Cytochrome P450 2C19) | Ki (Cytochrome P450 2C19) | IC50 (Glucocorticoid receptor) | Ki (Glucocorticoid receptor)
